{"source": "patent US10022366B2", "about": "“Extending and maintaining micropore viability of microneedle treated skin with lipid biosynthesis inhibitors for sustained drug delivery” (University of Maryland, Baltimore, priority 2013, dated 2018)", "key": {"[1]": {"experiment": "Irritation in the MN-treated animal models (data not shown)", "format": "in vivo", "conditions": "FLU deposition vehicle on MN-treated animal models", "experimental": "(§1) In order to optimize FLU skin concentration and NTX flux, in certain embodiments, four different methods were chosen for FLU deposition. […] Ethanol (200 proof) was chosen for in vivo studies because it is a frequently used topical excipient and most of the 40 μl ethanol used was allowed to evaporate before application of the drug gel. […] The other two formulations tested contained either 70% or 25% PG. […] See Ghosh P. et al., 2013. Development of a codrug approach for sustained delivery across MN treated skin. […] See Milewski M., Stinchcomb A 2011. Vehicle Composition Influence on the MN-Enhanced Transdermal Flux of Naltrexone Hydrochloride. Pharmaceutical Research 28: 124-134. The formulations also contained large amounts of ethanol, a known permeation enhancer, and evaporation of the ethanol from these was not as efficient due to the presence of PG. Solubility of FLU was not an issue with any of the formulations. Therefore, in a preferred embodiment, 40 μl of 1.5% FLU in 200 proof ethanol was chosen as the vehicle for FLU deposition. Ethanol is a well-known chemical enhancer used in the topical/transdermal industry. It acts by replacing the water molecules in the lipid polar head groups as well as the protein regions of the SC, thus enhancing free volume and permeability of molecules across the skin. See Feingold K R 2009. The outer frontier: the importance of lipid metabolism in the skin. […]"}, "[2]": {"experiment": "In vitro diffusion studies across MN treated skin (NTX flux, NTX and FLU skin concentration)", "format": "in vitro ADME, Yucatan miniature pig", "conditions": "p>0.05", "description": "NTX and FLU were quantified using high pressure liquid chromatography (HPLC). The HPLC system consisted of a Waters 717 plus auto-sampler, a Waters 600 quaternary pump, and a Waters 2487 dual wavelength absorbance detector with Waters Empower™ software. A Perkin Elmer Brownlee™ Spheri 5 VL C18 column (5μ, 220×4.6 mm) and a C18 guard column (15×3.2 mm) were used with the UV detector set at a wavelength of 280 nm for NTX and 305 nm for FLU. The mobile phase consisted of 65:35 (v/v) ACN: (0.1% TFA with 0.065% 1-octane sulfonic acid sodium salt, adjusted to pH 3.0 with TEA aqueous phase). Samples were run at a flow rate of 1.5 ml/min. The injection volume used was […] for all samples.\nIn vitro studies were performed to look at the flux across MN treated skin and the skin concentrations of NTX and FLU in the skin. Full-thickness Yucatan miniature pig skin was used for all in vitro experiments. All pig tissue harvesting experiments were done under IACUC approved protocols at the University of Kentucky. Fresh skin was cleaned to remove excess subcutaneous fat, dermatomed and stored at −20° C. Skin was thawed and cut into small square pieces on the day of the diffusion experiment. The thickness was measured for each individual piece of skin and the average thickness of all treatment groups was maintained between 1.4-1.8 mm. Skin was next treated with a 5 MN in-plane array, 10 times in one direction and 10 times in a mutually perpendicular direction to generate a total of 100 MN insertions within the active treatment area of 0.95 cm^2. Five treatment groups were used based on the 4 different vehicles used for FLU and a control for NTX only; all studies were done in triplicate. […] All samples were analyzed using HPLC. The steady state flux of NTX was calculated using the steady state portion of the cumulative amount permeated vs. time plot. The skin concentrations of both drugs were also determined at the end of the study by extracting the drug overnight into 10 mL of ACN, and injecting the extracted sample onto the HPLC column after appropriate dilutions. […]"}, "[3]": {"experiment": "Reversibility/recovery of pores by transepidermal water loss (TEWL)", "format": "in vivo, hairless guinea pigs (HGP)", "conditions": "after removal of occlusion at 7 days; compared among the 5 treatment sites; p>0.05", "from_the_text": "The reversibility/recovery of the pores following removal of occlusion was studied using transepidermal water loss (TEWL) in a HGP model. Five different sites were chosen on the dorsal region of an animal. […] All sites were marked and cleaned on the day of the treatment. […] The concentration and amount of NTX gel and FLU were consistent with the PK studies. A placebo gel was used for site 3 and site 4. The placebo gel was similar in composition to the NTX gel with 10% PG, 1% benzyl alcohol and 3% HEC as the gelling agent. […] All sites were occluded using a transdermal patch (148) secured in place with Bioclusive™ tape. […] All experiments were conducted at least in triplicate. Recovery of the skin, (i.e., regeneration of the barrier function of the SC) was studied using TEWL. These studies were carried out to look at the effect of the local concentration of FLU on the recovery/healing of the skin following removal of occlusion."}, "[4]": {"experiment": "Skin irritation by colorimetry (change in erythema, Δa*)", "format": "in vivo, hairless guinea pigs (HGP)", "conditions": "immediately following treatment or following removal of the patches at 7 days; among treatment groups; p>0.05", "experimental": "Local skin irritation can be one of the major drawbacks of topical/transdermal delivery, so irritation studies were conducted to look at the effect of local FLU treatment of the skin in HGP. The studies were conducted using the same treatment groups as the recovery studies. Colorimeter (Chroma Meter CR-400, Konica, Minolta, Japan) readings were obtained, in triplicate, at each site before and immediately after the treatment. The data were used to record changes in the color of the skin from baseline based on 3 different color axes, the red-green axis (a*), the black-white axis (L*) and the yellow-blue axis (b*). […] The degree of redness of the skin or the change in erythema of the skin was measured by the change in the red green axis (Δa*) values. Skin irritation studies were conducted in triplicate."}, "[5]": {"experiment": "Solubility of FLU in the deposition formulations", "format": "physicochemical", "conditions": "in the four deposition formulations (ethanol, acetone, PG-ethanol, PG-ethanol-water)", "experimental": "as §1"}, "[6]": {"conditions": "cited from earlier work"}, "[7]": {"conditions": "humans; cited from earlier work"}, "[8]": {"experiment": "Pharmacokinetic studies of NTX after MN treatment with or without FLU", "conditions": "for AUC / Cmax / Tmax: hairless, guinea pig, plasma"}, "[9]": {"conditions": "using MN, humans, no pore lifetime enhancer; cited from earlier work"}, "[10]": {"conditions": "daily/alternate day topical application; compared to 2-3 days without pore lifetime enhancement agent; cited from earlier work"}, "[11]": {"conditions": "established positive control treatment in HGP, 0.5% solution; cited from earlier work"}}, "note": "Counter-ions that a name gives are not always drawn."}
{"smiles": "CC(C)=O", "note": "[Acetone, acetone]", "values": [{"measurement": "irritation", "setting": "[1]", "result": "caused irritation"}]}
{"smiles": "CC(C)n1c(/C=C/C(O)CC(O)CC(=O)O)c(-c2ccc(F)cc2)c2ccccc21", "note": "(stereo not shown) [FLU, fluvastatin sodium]", "values": [{"measurement": "concentration of FLU in the skin", "setting": "[2]; irrespective of the method of FLU deposition, 1.5% FLU, 40 μl", "result": "no significant difference"}, {"measurement": "recovery of the skin (TEWL enhancement ratio over baseline)", "setting": "[3]", "result": "no significant differences"}, {"measurement": "change in erythema (Δa*)", "setting": "[4]", "result": "no significant differences"}, {"measurement": "solubility", "setting": "[5]", "result": "not an issue"}, {"measurement": "log P", "setting": "[6]", "result": 4.6}, {"measurement": "pKa", "setting": "[6]", "result": 4.27}, {"measurement": "oral bioavailability", "setting": "[7]", "result": "9-50%"}, {"measurement": "enhancement of drug delivery (window)", "setting": "[8]; NTX delivery across MN-treated skin with addition of FLU", "result": 7, "unit": "days"}]}
{"smiles": "O=C1CC[C@@]2(O)[C@H]3Cc4ccc(O)c5c4[C@@]2(CCN3CC2CC2)[C@H]1O5", "note": "[NTX, Naltrexone HCL]", "values": [{"measurement": "flux across MN treated skin", "setting": "[2]; NTX flux compared among the 5 treatment groups (4 FLU vehicles, NTX only control)", "result": "no significant difference"}, {"measurement": "concentration of NTX in the skin", "setting": "[2]; irrespective of the method of FLU deposition", "result": "no significant difference"}, {"measurement": "duration of delivery at therapeutic levels", "setting": "[9]", "result": "2 to 3", "unit": "days"}, {"measurement": "plasma concentrations", "setting": "[8]; NTX, FLU treatment group, throughout the range of the study (168 h)", "result": "above 2 ng/mL"}, {"measurement": "lag time with MN enhanced delivery", "setting": "[8]; NTX, any of the three groups", "result": "no lag time observed"}, {"measurement": "time after treatment at which drug was quantified in plasma", "setting": "[8]; NTX, patch system on MN treated skin", "result": "≤ 15", "unit": "min"}, {"measurement": "plasma concentrations", "setting": "[8]; NTX, vehicle control (ethanol), beyond 144 h", "result": "below 2 ng/mL"}, {"measurement": "time for which detectable levels of NTX were present in the plasma", "setting": "[8]; all study groups, HGP", "result": 72, "unit": "h"}, {"measurement": "NTX concentration in the plasma", "setting": "[8]; ethanol treated group, at 7 days", "result": "< 2", "unit": "ng/mL"}, {"measurement": "AUC", "setting": "[8]; topical or ocular, 200 μL NTX gel, NTX in plasma, HGP, MN control: MN + NTX gel", "result": "614 ± 213", "unit": "ng·h/mL"}, {"measurement": "Cmax", "setting": "[8]; topical or ocular, 200 μL NTX gel, NTX in plasma, HGP, MN control: MN + 200 μL NTX gel, n=3", "result": "39.4 ± 11.5", "unit": "ng/mL"}, {"measurement": "Tmax", "setting": "[8]; topical or ocular, 200 μL NTX gel, Tmax, NTX in plasma, HGP, MN control: MN + NTX gel", "result": "2.8 ± 2", "unit": "h"}, {"measurement": "AUC", "setting": "[8]; topical or ocular, NTX in plasma, HGP, Treatment group: MN + NTX gel + FLU in ethanol", "result": "1410 ± 1040", "unit": "ng·h/mL"}, {"measurement": "AUC", "setting": "[8]; topical or ocular, NTX in plasma, HGP, Vehicle control: MN + NTX gel + ethanol", "result": "1700 ± 1670", "unit": "ng·h/mL"}, {"measurement": "Cmax", "setting": "[8]; topical or ocular, NTX in plasma, HGP, Treatment group: MN + 300 μL NTX gel + 40 μL FLU in ethanol (200 proof), n=3", "result": "38.1 ± 19.7", "unit": "ng/mL"}, {"measurement": "Cmax", "setting": "[8]; topical or ocular, NTX in plasma, HGP, Vehicle control: MN + 300 μL NTX gel + 40 μL ethanol (200 proof), n=4", "result": "39.3 ± 19.2", "unit": "ng/mL"}, {"measurement": "Tmax", "setting": "[8]; topical or ocular, Tmax, NTX in plasma, HGP, Treatment group: MN + NTX gel + FLU in ethanol", "result": "2.7 ± 3.8", "unit": "h"}, {"measurement": "Tmax", "setting": "[8]; topical or ocular, Tmax, NTX in plasma, HGP, Vehicle control: MN + NTX gel + ethanol", "result": "1.4 ± 1.7", "unit": "h"}, {"measurement": "Tmax", "setting": "[8]; topical, Tmax or time to maximum plasma concentration, NTX, all studies", "result": "0.25 to 4", "unit": "h"}, {"measurement": "NTX levels", "setting": "[8]; vehicle control group, until 144 hours", "result": "above 2 ng/ml"}]}
{"smiles": "O=C(O)Cc1ccccc1Nc1c(Cl)cccc1Cl", "note": "[diclofenac, diclofenac sodium]", "values": [{"measurement": "period of drug delivery following MN treatment", "setting": "[10]", "result": 7, "unit": "days"}]}
{"smiles": "CCCCCCCCCCCCOS(=O)(=O)[O-].[Na+]", "note": "[sodium lauryl sulfate]", "values": [{"measurement": "Δa* value", "setting": "[11]", "result": 12.3}]}
